Measurements from patent US11667649B2, “Heteroaromatic macrocyclic ether chemotherapeutic agents” (Nuvalent, Inc., priority 2020, dated 2023).

System: TPM3-NTRK1-wt IC50 / primary target (e.g. CD74-ROS1-wt) IC50, Ba/F3 cells
Test: Cell assay TRKA selectivity (TRKA potency divided by primary target potency)
Format: cell-based
Conditions: for TPM3-NTRK1-wt/CD74-ROS1-G2032R: TRKA selectivity ratio: TPM3-NTRK1-wt IC50 / CD74-ROS1-G2032R IC50, Ba/F3 cells; for TPM3-NTRK1-wt/CD74-ROS1-wt: TRKA selectivity ratio: TPM3-NTRK1-wt IC50 / CD74-ROS1-wt IC50, Ba/F3 cells; for TPM3-NTRK1-wt/EML4-ALK-L1196M-G1202R: TRKA selectivity ratio: TPM3-NTRK1-wt IC50 / EML4-ALK-L1196M-G1202R IC50, Ba/F3 cells; for TPM3-NTRK1-wt/EML4-ALK-wt: TRKA selectivity ratio: TPM3-NTRK1-wt IC50 / EML4-ALK-wt IC50, Ba/F3 cells
Text: Genes encoding CD74-ROS1 wild-type (wt), CD74-ROS1 G2032R, CD74-ROS1 S1986F, CD74-ROS1 L2026M, CD74-ROS1 D2033N, EML4-ALK wt (variant 1), EML4-ALK G1202R (variant 1), EML4-ALK L1196M/G1202R (variant 1), EML4-ALK G1202R/G1269A (variant 1), EML4-ALK G1202R/L1198F (variant 1), and TPM3-TRKA were synthesized at GeneRay, cloned into the retroviral construct pMSCV-puro (Biovector), and packaged into retroviral particles. The virus was used to infect Ba/F3 cells (RIKEN) at multiplicity of infection=1 for 1 day. Infected cells were rescued in media (RPMI-1640 with 10% fetal bovine serum and 1% streptomycin and penicillin) supplemented with mouse IL-3 (10 ng/mL) for 2 days, and stable cell lines were selected by IL-3 withdrawal and puromycin (0.8 μg/mL) for 7 days. Monoclones were selected by single-cell dilution in IL-3-free medium containing puromycin (0.8 μg/mL). Transformation of desired genes was confirmed by Sanger sequencing and western blot using the following antibodies: ROS1 (CST #3287), ALK (CST #3633), and pan-TRK (Abcam #76291).
Stable cells were plated at 1,000 cells/well (40 μL) in a 384-well plate for 1 day. Test compounds (40 nL) were then added in a 3-fold dilution series using the TECAN EVO200 liquid handler and incubated for 72 hours. Plates were equilibrated at room temperature for 15 minutes followed by addition of 40 μL CellTiter-Glo reagent (Promega). Luminescence was measured on a plate reader. Half-maximal inhibitory concentration (IC50) was calculated from percent inhibition and inhibitor concentration using four-parameter logistic regression. […] Exemplary data is given in Table 4 (nd is not determined).
TRKA selectivity was calculated by dividing a compound's TRKA potency by its primary target potency (e.g. TPM3-NTRK1-wt IC50/CD74-ROS1-wt IC50). Compound selectivity can be interpreted by binning ratio values: bin A for very high selectivity, ratio>30-fold; bin B for high selectivity, ratio>10-fold; bin C for moderate selectivity, ratio≥1; and bin D for low selectivity, ratio<1. […] (nd=not determined).

| SMILES | TPM3-NTRK1-wt/CD74-ROS1-G2032R | TPM3-NTRK1-wt/CD74-ROS1-wt | TPM3-NTRK1-wt/EML4-ALK-L1196M-G1202R | TPM3-NTRK1-wt/EML4-ALK-wt |
| --- | --- | --- | --- | --- |
| COc1cc2n(n1)-c1ccc(F)cc1[C@@H](C)Oc1cc(cnc1N)-c1c(nnn1CC1CC1)C2 [Example 144, (19R)-3-(cyclopropylmethyl)-16-fluoro-10-methoxy-19-methyl-20-oxa-3,4,5,11,12,23-hexaazapentacyclo[19.3.1.0^2,^6.0^8,^12.0^13,^18]pentacosa-1(24),2(6),4,8,10,13,15,17,21(25),22-decaen-22-amine] | A (bin A for very high selectivity, ratio>30-fold) | A (bin A for very high selectivity, ratio>30-fold) | B (bin B for high selectivity, ratio>10-fold) | A (bin A for very high selectivity, ratio>30-fold) |
| CCn1ncc2c1-c1cnc(N)c(c1)O[C@H](C)c1cc(F)ccc1-n1nc(OC)cc1C2 [Example 98, (19R)-3-ethyl-16-fluoro-10-methoxy-19-methyl-20-oxa-3,4,11,12,23-pentaazapentacyclo[19.3.1.0^2,^6.0^8,^12.0^13,^18]pentacosa-1(24),2(6),4,8,10,13,15,17,21(25),22-decaen-22-amine] | A (bin A for very high selectivity, ratio>30-fold) | A (bin A for very high selectivity, ratio>30-fold) | C (bin C for moderate selectivity, ratio≥1) | B (bin B for high selectivity, ratio>10-fold) |
| CCn1nc(C#N)c2c1-c1cnc(N)c(c1)O[C@H](C)c1cc(F)ccc1-c1nn(C)cc1C2 [Example 156, (19R)-22-amino-3-ethyl-16-fluoro-10,19-dimethyl-20-oxa-3,4,10,11,23-pentaazapentacyclo[19.3.1.0^2,^6.0^8,^12.0^13,^18]pentacosa-1(24),2(6),4,8,11,13,15,17,21(25),22-decaene-5-carbonitrile] | – | – | C (bin C for moderate selectivity, ratio≥1) | – |
| CCn1ncc2c1-c1cnc(N)c(c1)OC(C)c1cc(F)ccc1-c1cnccc1C2 (stereo not drawn) [Example 35, 3-ethyl-17-fluoro-20-methyl-21-oxa-3,4,11,24-tetraazapentacyclo[20.3.1.0^2,^6.0^8,^13.0^14,^19]hexacosa-1(25),2(6),4,8(13),9,11,14,16,18,22(26),23-undecaen-23-amine] | A (bin A for very high selectivity, ratio>30-fold) | A (bin A for very high selectivity, ratio>30-fold) | C (bin C for moderate selectivity, ratio≥1) | A (bin A for very high selectivity, ratio>30-fold) |
| Cc1cc2n(n1)-c1ccc(F)cc1[C@@H](C)Oc1cc(cnc1N)-c1c(C#N)ncn1C2 [Example 61, (19R)-22-amino-16-fluoro-10,19-dimethyl-20-oxa-4,6,11,12,23-pentaazapentacyclo[19.3.1.0^2,^6.0^8,^12.0^13,^18]pentacosa-1(24),2,4,8,10,13,15,17,21(25),22-decaene-3-carbonitrile] | A (bin A for very high selectivity, ratio>30-fold) | A (bin A for very high selectivity, ratio>30-fold) | B (bin B for high selectivity, ratio>10-fold) | A (bin A for very high selectivity, ratio>30-fold) |
| CCc1noc2c1-c1cnc(N)c(c1)O[C@H](C)c1cc(F)ccc1-c1nncn1C2 [Example 120, (19R)-3-ethyl-16-fluoro-19-methyl-5,20-dioxa-4,8,10,11,23-pentaazapentacyclo[19.3.1.0^2,^6.0^8,^12.0^13,^18]pentacosa-1(24),2(6),3,9,11,13,15,17,21(25),22-decaen-22-amine] | C (bin C for moderate selectivity, ratio≥1) | A (bin A for very high selectivity, ratio>30-fold) | D (bin D for low selectivity, ratio<1) | C (bin C for moderate selectivity, ratio≥1) |
| CCc1noc2c1-c1cnc(N)c(c1)O[C@H](C)c1cc(F)ccc1-c1nn(C)cc1C2 [Example 19, (19R)-3-ethyl-16-fluoro-10,19-dimethyl-5,20-dioxa-4,10,11,23-tetraazapentacyclo[19.3.1.0^2,^6.0^8,^12.0^13,^18]pentacosa-1(24),2(6),3,8,11,13,15,17,21(25),22-decaen-22-amine] | A (bin A for very high selectivity, ratio>30-fold) | A (bin A for very high selectivity, ratio>30-fold) | C (bin C for moderate selectivity, ratio≥1) | A (bin A for very high selectivity, ratio>30-fold) |
| C[C@H]1Oc2cc(cnc2N)-c2c(C3CCC3)noc2Cc2cn(C)nc2-c2ccc(F)cc21 [Example 26, (19R)-3-cyclobutyl-16-fluoro-10,19-dimethyl-5,20-dioxa-4,10,11,23-tetraazapentacyclo[19.3.1.0^2,^6.0^8,^12.0^13,^18]pentacosa-1(24),2(6),3,8,11,13,15,17,21(25),22-decaen-22-amine] | A (bin A for very high selectivity, ratio>30-fold) | A (bin A for very high selectivity, ratio>30-fold) | B (bin B for high selectivity, ratio>10-fold) | A (bin A for very high selectivity, ratio>30-fold) |
| CCn1ncc2c1-c1cnc(N)c(c1)OC(C)c1cc(F)ccc1-c1ccncc1C2 (stereo not drawn) [Example 36, 3-ethyl-17-fluoro-20-methyl-21-oxa-3,4,10,24-tetraazapentacyclo[20.3.1.0^2,^6.0^8,^13.0^14,^19]hexacosa-1(25),2(6),4,8(13),9,11,14,16,18,22(26),23-undecaen-23-amine] | A (bin A for very high selectivity, ratio>30-fold) | A (bin A for very high selectivity, ratio>30-fold) | C (bin C for moderate selectivity, ratio≥1) | A (bin A for very high selectivity, ratio>30-fold) |
| CCc1nn(C)c2c1-c1cnc(N)c(c1)OCc1cc(F)ccc1-n1nc(C)cc1C2 [Example 55, 3-ethyl-16-fluoro-5,10-dimethyl-20-oxa-4,5,11,12,23-pentaazapentacyclo[19.3.1.0^2,^6.0^8,^12.0^13,^18]pentacosa-1(24),2(6),3,8,10,13,15,17,21(25),22-decaen-22-amine] | A (bin A for very high selectivity, ratio>30-fold) | A (bin A for very high selectivity, ratio>30-fold) | C (bin C for moderate selectivity, ratio≥1) | A (bin A for very high selectivity, ratio>30-fold) |
| C[C@H]1Oc2cc(cnc2N)-c2c(C#N)ncn2Cc2cc(F)cnc2-c2ccc(F)cc21 [Example 63, (20R)-23-amino-10,17-difluoro-20-methyl-21-oxa-4,6,12,24-tetraazapentacyclo[20.3.1.0^2,^6.0^8,^13.0^14,^19]hexacosa-1(25),2,4,8,10,12,14(19),15,17,22(26),23-undecaene-3-carbonitrile] | A (bin A for very high selectivity, ratio>30-fold) | A (bin A for very high selectivity, ratio>30-fold) | B (bin B for high selectivity, ratio>10-fold) | A (bin A for very high selectivity, ratio>30-fold) |
| C[C@H]1Oc2cc(cnc2N)-c2c(CC(F)F)nn(C)c2Cc2cc(C(F)F)nn2-c2ccc(F)cc21 [Example 180, (19R)-3-(2,2-difluoroethyl)-10-(difluoromethyl)-16-fluoro-5,19-dimethyl-20-oxa-4,5,11,12,23-pentaazapentacyclo[19.3.1.0^2,^6.0^8,^12.0^13,^18]pentacosa-1(24),2(6),3,8,10,13,15,17,21(25),22-decaen-22-amine] | A (bin A for very high selectivity, ratio>30-fold) | A (bin A for very high selectivity, ratio>30-fold) | C (bin C for moderate selectivity, ratio≥1) | A (bin A for very high selectivity, ratio>30-fold) |
